“And” between values parts separate entries of the source, which are not always exact repeats. Equal entries are not always repeated. Where two headings read alike, the source gives them in different places.
Key:
B. malayi AVR-14B GluCl = target: T1, B. malayi AVR-14B GluCl (Brugia malayi, UniProt A0A0K0J2Q9); experiment: Two-electrode voltage-clamp on Xenopus laevis oocytes expressing Bma-AVR-14B; conditions: for agonist activity (in words): tested at 1 mM; for L-glutamate-mediated current response (mean ± SEM) / activation at 1000 µM / activation at 10000 µM: normalized to 10 mM L-glutamate; for direct activation as agonist (in words): 0.3 to 100 µM
T1 sequence (A0A0K0J2Q9 19-427): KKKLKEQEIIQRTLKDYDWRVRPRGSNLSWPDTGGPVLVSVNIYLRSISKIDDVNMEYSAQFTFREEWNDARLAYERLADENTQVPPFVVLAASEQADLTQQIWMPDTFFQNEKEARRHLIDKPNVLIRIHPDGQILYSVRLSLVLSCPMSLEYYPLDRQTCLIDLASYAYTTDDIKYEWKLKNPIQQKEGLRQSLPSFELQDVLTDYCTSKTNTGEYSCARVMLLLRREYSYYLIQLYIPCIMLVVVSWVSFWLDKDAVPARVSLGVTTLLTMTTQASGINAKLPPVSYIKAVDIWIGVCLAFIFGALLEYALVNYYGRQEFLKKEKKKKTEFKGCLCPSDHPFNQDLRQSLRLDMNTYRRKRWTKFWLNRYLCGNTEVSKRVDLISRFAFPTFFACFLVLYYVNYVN

adult B. malayi worms = experiment: Adult B. malayi worm motility; type: cell-based, Brugia malayi; conditions: for recovery from the motility paralysis: treated adult worms; for pIC50, inhibition of motility / IC50: 24 h exposure; for IC50: read-out: IC50, inhibition of motility
[1] = tested on: H. contortus AVR-14B/GluClα3B; conditions: SI table ref 3, cited from earlier work
[2] = tested on: C. oncophora IVR AVR-14/GluClα3; conditions: IVM-resistant strain; SI table ref 5; cited from earlier work
[3] = tested on: C. oncophora IVS AVR-14/GluClα3; conditions: IVM-sensitive strain; SI table ref 5; cited from earlier work
B. malayi = conditions: cited from earlier work; for gradual recovery from the paralytic effects: treated worms
[4] = tested on: C. elegans AVR-14B/GluClα3B; conditions: cited from earlier work
[5] = tested on: D. immitis AVR-14B/GluClα3B; conditions: cited from earlier work
[6] = peak current normalized to 30 mM L-glutamate
[7] = read-out: IC50(female), motility, female B. malayi
[8] = coapplied with 30 mM L-glutamate

For `Cc1onc(O)c1CC(N)C(=O)O` (stereo not drawn) [AMPA, α-amino-3-hydroxy-5-methyl-4-isoxazolepropionic acid], the “agonist activity (in words)” value (B. malayi AVR-14B GluCl) was “failed to induce any measurable channel activity”.
With `CN[C@H](CC(=O)O)C(=O)O` [NMDA, N-methyl-D-aspartic acid] the “agonist activity (in words)” value (B. malayi AVR-14B GluCl) was “failed to induce any measurable channel activity”.
For `C/C(=C\C=C\[C@]1(C)[C@@H](O)CC[C@@]2(C)[C@H]1CC[C@H]1Cc3c([nH]c4cc5c(cc34)C3=CC(C)(C)OC(C)(C)[C@H]3C5)[C@@]12C)C(=O)O` [NA, Nodulisporic acid], the EC50 (B. malayi AVR-14B GluCl; EC50, direct activation (agonist), normalized to 30 mM L-glutamate) was 2.7 µM, the “nH, potentiation (PAM) of L-glutamate response” value (B. malayi AVR-14B GluCl; in the presence of 30 µM L-glutamate) was 0.8 ± 0.4 and the “increase in the mean AUC response of L-glutamate” value (B. malayi AVR-14B GluCl; in the presence of NA) was “approximately sevenfold increase”. For the same molecule, the EC50 (B. malayi AVR-14B GluCl; pEC50, direct activation, peak current normalized to 30 mM L-glutamate) was 2.51 µM, the “nH (Hill coefficient), direct activation” value (B. malayi AVR-14B GluCl; [6]) was 1.6 ± 0.8 and the “exposure required to produce a reduction in worm motility similar to IVM” value (adult B. malayi worms; adult worms) was greater than 3 days. For the same molecule, the “recovery from the motility paralysis” value (adult B. malayi worms) was “do not show any sign of recovery”.
With `N[C@H](C(=O)O)c1cc(O)no1` [ibotenate] the “normalized current response to agonist (mean ± SEM)” value (B. malayi AVR-14B GluCl; agonist 1 mM, normalized to 1 mM L-glutamate response) was 73.4 ± 2.5%.
In the case of `N[C@@H](Cn1oc(=O)[nH]c1=O)C(=O)O` [quisqualate], the “agonist activity (in words)” value (B. malayi AVR-14B GluCl) is reported as “failed to induce any measurable channel activity”.
With `N[C@@H](CC(=O)O)C(=O)O` [L-aspartate] the “agonist activity (in words)” value (B. malayi AVR-14B GluCl) was “failed to induce any measurable channel activity”.
For `CC[C@H](C)[C@H]1O[C@]2(CC[C@@H]1C)C[C@@H]1C[C@@H](C/C=C(\C)[C@@H](O[C@H]3C[C@H](OC)[C@@H](O[C@H]4C[C@H](OC)[C@@H](O)[C@H](C)O4)[C@H](C)O3)[C@@H](C)/C=C/C=C3\CO[C@@H]4[C@H](O)C(C)=C[C@@H](C(=O)O1)[C@]34O)O2` [IVM, ivermectin], the “direct activation of receptor (in words)” value (B. malayi AVR-14B GluCl; 1 pM IVM) was “did not activate the Bma-AVR-14B receptor directly”, the “effect on NA-mediated effects (in words)” value (B. malayi AVR-14B GluCl; 0.1 nM IVM, NA with 30 µM L-glutamate) was “eliminated the agonist as well as PAM effects of NA” and the “L-glutamate-mediated current response (mean ± SEM)” value (B. malayi AVR-14B GluCl; 100 µM L-glutamate in the presence of 0.1 nM IVM) was 1.3 ± 0.3%. The “L-glutamate-mediated current response (mean ± SEM)” value (B. malayi AVR-14B GluCl; 1 mM L-glutamate in the presence of 0.01 nM IVM) was 34.2 ± 7.5%, the “L-glutamate-mediated current response (mean ± SEM)” value (B. malayi AVR-14B GluCl; 1 mM L-glutamate in the presence of 0.1 nM IVM) was 4.0 ± 0.6% and the “L-glutamate-mediated current response (mean ± SEM)” value (B. malayi AVR-14B GluCl; 10 mM L-glutamate in the presence of 0.01 nM IVM) was 70.3 ± 7.9%. For the same molecule, the “L-glutamate-mediated current response (mean ± SEM)” value (B. malayi AVR-14B GluCl; 10 mM L-glutamate in the presence of 0.1 nM IVM) was 7.7 ± 0.7%, the “nH (Hill coefficient), direct activation” value (B. malayi AVR-14B GluCl; [6]) was 0.3 ± 0.1 and 0.3 ± 0.2 and the “pEC50, direct activation” value (B. malayi AVR-14B GluCl; [6]) was 8.7 ± 1.2. For the same molecule, the EC50 ([1]; read-out: estimated EC50) was roughly 0.0001 µM, the EC50 [2] was 1.3 µM and the EC50 [3] was 0.5 µM. For the same molecule, the “pIC50, inhibition of motility” value (adult B. malayi worms; adult female worms) was 5.9 ± 0.4, the “pIC50, inhibition of motility” value (adult B. malayi worms; adult male worms) was 4.9 ± 0.2 and the IC50 (adult B. malayi worms; adult female worms) was 1.1 µM. For the same molecule, the IC50 (adult B. malayi worms; adult male worms) was 11.6 µM and the “recovery from the motility paralysis” value (adult B. malayi worms) was “do not show any sign of recovery”.
In the case of `CCN(CC)C(=O)N1CCN(C)CC1` [DEC, diethylcarbamazine], the IC50 (B. malayi; read-out: IC50, motility, B. malayi) is listed as 4.4 µM and the “gradual recovery from the paralytic effects” value (B. malayi) is listed as 3 to 4 h.
With `C=C(C)[C@H]1CN[C@H](C(=O)O)[C@H]1CC(=O)O` [kainate] the “agonist activity (in words)” value (B. malayi AVR-14B GluCl) was “failed to induce any measurable channel activity”.
In the case of `CC(C)C[C@H]1C(=O)O[C@H](Cc2ccc(N3CCOCC3)cc2)C(=O)N(C)[C@@H](CC(C)C)C(=O)O[C@H](C)C(=O)N(C)[C@@H](CC(C)C)C(=O)O[C@H](Cc2ccc(N3CCOCC3)cc2)C(=O)N(C)[C@@H](CC(C)C)C(=O)O[C@H](C)C(=O)N1C` [emodepside], the IC50 (B. malayi; [7]) is listed as 0.801 µM and the IC50 (B. malayi; read-out: IC50(male), motility, male B. malayi) is listed as 0.176 µM.
For `N#Cc1nn(-c2c(Cl)cc(C(F)(F)F)cc2Cl)c(N)c1[S+]([O-])C(F)(F)F` (stereo not shown) [FIP, fipronil], the “direct activation as agonist (in words)” value (B. malayi AVR-14B GluCl) was “failed to produce direct activation”, the IC50 (B. malayi AVR-14B GluCl; IC50, inhibition of L-glutamate-gated current, coapplied with 30 mM L-glutamate) was 1.8 µM and the “nH, inhibition of L-glutamate-gated current” value (B. malayi AVR-14B GluCl; [8]) was −1.3 ± 0.4. It also gave an IC50 (B. malayi AVR-14B GluCl; pIC50, inhibition of L-glutamate-gated current, coapplied with 30 mM L-glutamate) of 2 µM and an inhibition at 100 µM (B. malayi AVR-14B GluCl; read-out: inhibition of the glutamate response) of roughly 95%.
In the case of picrotoxin [PTX], the “inhibition of the glutamate response” value (B. malayi AVR-14B GluCl; 100 µM, 30 mM L-glutamate) is reported as “failed to completely block”, the “direct activation as agonist (in words)” value (B. malayi AVR-14B GluCl) is reported as “failed to produce direct activation” and the “nH, inhibition of L-glutamate-gated current” value (B. malayi AVR-14B GluCl; [8]) is reported as −1.2 ± 0.6. For the same molecule, the “pIC50, inhibition of L-glutamate-gated current” value (B. malayi AVR-14B GluCl; [8]) was 4.5 ± 0.2 and the IC50 (B. malayi AVR-14B GluCl; read-out: IC50, inhibition of L-glutamate-gated current, coapplied with 30 mM L-glutamate) was 33.1 µM.
For `NCCCC(=O)O` [GABA, γ-amino butyric acid], the “agonist activity (in words)” value (B. malayi AVR-14B GluCl) was “inactive”.
For `c1ccc([C@H]2CN3CCSC3=N2)cc1` [levamisole], the IC50 (B. malayi; [7]) is given as 0.01 µM and the “gradual recovery from the paralytic effects” value (B. malayi) is given as 3 to 4 h.
For `NCC(=O)O` [Glycine, glycine], the “agonist activity (in words)” value (B. malayi AVR-14B GluCl) was “inactive”.
In the case of `N[C@@H](CCC(=O)O)C(=O)O` [L-glutamate], the EC50 [4] is listed as 2200 µM, the EC50 [5] is listed as roughly 1000 µM and the “time constant of desensitization (τ)” value (B. malayi AVR-14B GluCl; 3 µM L-glutamate) is listed as 1.3 ± 0.3 s. The “reversal potential (Erev) of glutamate-gated currents” value (B. malayi AVR-14B GluCl; 1 mM L-glutamate, −80 to +20 mV) was −28.9 ± 2.9 mV, the “time constant of desensitization (τ)” value (B. malayi AVR-14B GluCl; 30 mM L-glutamate) was 0.6 ± 0.1 s and the “nH (Hill coefficient), direct activation” value (B. malayi AVR-14B GluCl; [6]) was 0.8 ± 0.3. It also gave an activation at 1000 µM (B. malayi AVR-14B GluCl; read-out: L-glutamate-mediated current response (mean ± SEM), 1 mM L-glutamate alone, 0.01 nM IVM experiment) of 54.3 ± 9.2%, an activation at 1000 µM (B. malayi AVR-14B GluCl; read-out: L-glutamate-mediated current response (mean ± SEM), 1 mM L-glutamate alone, 0.1 nM IVM experiment) of 52.8 ± 3.3% and an activation at 10000 µM (B. malayi AVR-14B GluCl; read-out: L-glutamate-mediated current response (mean ± SEM), 10 mM L-glutamate alone, 0.01 nM IVM experiment) of 100%. The activation at 10000 µM (B. malayi AVR-14B GluCl; read-out: L-glutamate-mediated current response (mean ± SEM), 10 mM L-glutamate alone, 0.1 nM IVM experiment) was 100%, the EC50 [1] was 27.6 µM and the EC50 [2] was 96.1 µM. For the same molecule, the EC50 [3] was 29.7 µM.
